Laboratory results published in patent US20140335115A1 (priority 2013, published 2014).

Key:
Assay type in all cases: cell-based
vaccinia virus = test system: vaccinia virus
cowpoxvirus = test system: cowpoxvirus
monkeypoxvirus = test system: monkeypoxvirus

Measured: prevention of spread of virus to Jurkat T cells

O=C(NN1C(=O)[C@@H]2[C@@H]3C=C[C@@H]([C@H]4C[C@@H]34)[C@@H]2C1=O)c1ccc(C(F)(F)F)cc1 [ST246]
~90%: vaccinia virus | cowpoxvirus | monkeypoxvirus
